Assay results reported in patent US12012394B2, “Alpha-synuclein ligands” (Washington University, priority 2018, dated 2024).
Values joined by “and” are separate entries in the source; they are usually repeats but may differ in a detail not shown here. Equal entries are not always repeated.

Assays:
[1] = target: Fibrils 4174 (Homo sapiens, UniProt P37840); test: 3H radioligand competition, Fibrils 4174; type: binding; details: hot concentration 2 nM
Procedure: (§1) A series of compounds were synthesized and the Ki (nM) in the presence of Fibrils 4174, PD-seeded fibrils (using Tg-1-90B as the radioligand), AD Tissue 6843 and/or AD Tissue 2846 was determined. In each experiment, the “hot” concentration was 2 nM.

[2] = target: T1, PD-seeded fibrils (Homo sapiens (Human), UniProt P37840); test: Radioligand competition, PD-seeded fibrils (Tg-1-90B as radioligand); type: binding; details: PD-seeded fibrils (Tg-1-90B radioligand); hot concentration 2 nM
Procedure: as §1

[3] = target: AD Tissue 6843; test: 3H radioligand competition, AD Tissue 6843; type: binding; details: hot concentration 2 nM
Procedure: as §1

[4] = target: AD Tissue 2846; test: 3H radioligand competition, AD Tissue 2846; type: binding; details: hot concentration 2 nM
Procedure: as §1

[5] = target: T1, PD-seeded fibrils; test: Heterologous competition binding assay with [18F]TZ61-44 as radioligand; details: radioligand [18F]TZ61-44, 25 nM PD-seeded fibrils; for Ki: Cheng-Prusoff from EC50
Procedure: (§2) The equilibrium inhibitor constant (Ki) of a series of compounds was measured using heterologous radioactive binding assays with [^18F]TZ61-44, […], or [^125I]TZ61-84 as the screening radioligands. EC50 values for each compound were determined by fitting the data to the equation Y=Bottom+(Top−Bottom)/(1+(X−Log EC50)^−Hillcoefficient) using nonlinear regression by Kaleidagraph software, where Top and Bottom are the Y values for the top and bottom plateaus of the binding curve. The Ki values were derived from the EC50 values using the Cheng-Prusoff equation: Ki=EC50/(1+[radioligand]/Kd). FIGS. 5A-5E show the inhibition curves for TG-1-90B, TZ55-101, TZ61-84, TZ55-107, and TZ55-81 using [^18F]TZ61-44 as the radioligand. FIG. 11B-C show the inhibition curves for two separate experiments on PD fibrils for TZ55-101 using […] as the radioligand. FIGS. 12A-12F show the inhibition curves for TZ66-3, TZ64-015, TZ64-016, TZ64-018, TZ64-019, and TZ64-020 using [^18F]TZ61-44 as the radioligand. FIGS. 13A-13D show the inhibition curves for TZ66-9, TZ66-8, and TZ55-107 using [^18F]TZ61-44 as the radioligand.

[6] = target: PD fibrils (Homo sapiens (Human), UniProt P37840); test: Heterologous competition binding assay with [11C]Tg-1-90B as radioligand; details: radioligand Tg-1-90-B
Procedure: as §2

[7] = test system: AD Tissue 6843; test: Heterologous competition binding assay with [11C]Tg-1-90-B, AD tissue; details: radioligand [11C]Tg-1-90-B
Procedure: FIG. 11D is a plot of a heterologous competition binding assay of TZ55-101 in the presence of the radioligand [^11C]Tg-1-90-B and AD tissue 6843.
as §2
The binding to AD fibrils was also assessed for TZ55-101 in FIG. 11D.

[8] = test system: Banner AD tissue; test: Homologous competition radioligand binding assay, AD tissue; design: species or system human; details: [18F]28
Procedure: (§3) The equilibrium dissociation constant (Kd) for a series of compounds was determined using direct radioactive competitive binding assays (homologous or heterologous) with either recombinant α-synuclein fibrils or brain tissue homogenates from AD cases.
Brain tissue samples were selected from an autopsy case series of patients evaluated for parkinsonism by movement disorders specialists at the Movement Disorders Center of Washington University School of Medicine in St. Louis. […] Dementia was determined by a movement disorders specialist based on clinical assessment of cognitive dysfunction sufficiently severe to impair activities of daily living, with further evaluation of cognitive impairment using the AD8 and Mini-Mental Status Exam (MMSE) [Galvin, J. E., et al., “The AD8: a brief informant interview to detect dementia,” 2005, Neurology 65:559-564; Folstein, M. F., et al., ““Mini-mental state”. […] LB stage was assessed at autopsy using a PD staging scale (range: 0, 1-6) [Braak, H., et al., “Stages in the development of Parkinson's disease-related pathology,” 2004, Cell Tissue Res., 318:121-134]. PD cases were selected based on a clinical diagnosis of PD plus dementia, Braak LB stage 5-6 pathology, and the absence of significant Aβ or tau pathology determined by immunohistochemistry. […]

[9] = target: T2, α-synuclein fibrils (Homo sapiens (Human), UniProt P37840); test: Direct radioligand binding assay of [18F]28, α-synuclein fibrils; details: α-synuclein fibrils
Procedure: as §3
(§4) Recombinant protein was produced in E. coli using protocols based on previously described methods for α-synuclein [Giasson, B. I., et al., “Mutant and wild type human alpha-synucleins assemble into elongated filaments with distinct morphologies in vitro,” 1999, J Biol. Chem., 274:7619-7622; Huang, C., et al., “A new method for purification of recombinant human alpha-synuclein in Escherichia coli,” 2005, Protein Expr Purif, 42:173-177; Yu, L., et al, “Synthesis and in vitro evaluation of á-synuclein ligands,” 2012, Bioorg. […]
(§5) Purified recombinant α-synuclein monomer (2 mg/ml) was incubated in 20 mM Tris-HCl, pH 8.0, 100 mM NaCl for 72 h at 37 C with shaking at 1000 rpm in an Eppendorf Thermomixer. […] The concentration of α-synuclein monomer in the supernatant was determined in a BCA protein assay according to the manufacturer's instructions, using a bovine serum albumin (BSA) standard curve. The measured decrease in α-synuclein monomer concentration was used to determine the concentration of fibrils in the 72 h fibril reaction mixture. […]

[10] = test system: α-synuclein fibrils; test: as above; design: species or system human; details: comparison of Kd on fibrils and AD tissue
Procedure: as §3, §4, §5

[11] = target: T2, α-synuclein fibrils; test: Thioflavin T fluorescence competitive assay; details: read-out: Thioflavin T assay Ki; competition with ThT on recombinant α-synuclein fibrils; at least three experiments
Procedure: α-Synuclein recombinant protein was produced in E. coli. BL21(DE3)RIL E. coli were transformed with a pRK172 bacterial expression plasmid containing the human α-synuclein coding sequence. […] Overnight cultures were pelleted by centrifugation at 3,900×g for 10 min at 25° C. Bacterial pellets were resuspended in 20 mL osmotic shock buffer (30 mM Tris-HCl, 2 mM EDTA, 40% sucrose, pH 7.2) by gentle vortexing and incubated at room temperature for 10 minutes. The cell suspension was then centrifuged at 8,000×g for 10 min at 25° C. and the pellet was resuspended in 22.5 mL cold H2O before adding 9.4 μL 2 M MgCl2 to each tube. The suspension was incubated on ice for 3 min prior to centrifugation at 20,000×g for 15 min at 4° C. The supernatant was transferred to a fresh tube, streptomyocin was added to a final concentration of 10 mg/mL, and then centrifuged at 20,000×g for 15 min at 4° C. The supernatant from this step was collected and dithiothreitol (DTT) and Tris-HCl were added to final concentrations of 1 mM and 20 mM respectively, before boiling for 10 min to precipitate heat-sensitive proteins, which were pelleted at 20,000×g for 15 minutes at 4° C. The supernatant was collected and filtered through a 0.45 μm surfactant free cellulose acetate filter (Corning, Corning, NY) before loading onto a 1 mL DEAE Sepharose column equilibrated in 20 mM Tris-HCl pH 8, 1 mM EDTA, and 1 mM DTT. The DEAE column was washed with 20 mM Tris-HCl pH 8, 1 mM EDTA, 1 mM DTT before eluting α-synuclein protein in 20 mM Tris-HCl, pH 8, buffer with 1 mM EDTA, 1 mM DTT and 0.3 M NaCl. The purified α-synuclein protein was dialyzed overnight in 10 mM Tris-HCl, pH 7.6, 50 mM NaCl, and 1 mM DTT.
The purified, recombinant α-synuclein monomer (2 mg/mL) was incubated in Tris-HCl (20 mM) and NaCl (100 mM) while shaking at 1000 rpm in an Eppendorf Thermomixer in a 37° C. temperature-controlled room for 72 hours. To determine the concentration of fibrils, the reaction mixture (100 μL) was centrifuged at 18,000×g for 10 minutes to separate fibrils from monomer. The α-synuclein monomer and other soluble proteins in the supernatant were removed, and the fibril pellet was resuspended in 100 μL solution of Tris-HCl (20 mM) and NaCl (100 mM). This fibril suspension was used in a bicinchoninic acid (BCA) protein assay along with a bovine serum albumin (BSA) standard curve to determine the concentration of fibrils in the 72 hour fibril reaction mixture.
To prepare the fibrils for performing binding assays, the fibril reaction mixture prepared above was centrifuged at 18,000×g for 10 minutes. The supernatant was discarded and the fibril pellet was resuspended in Tris-HCl buffer (30 nM, pH=7.4) to achieve the desired concentration (3 or 6 μM) of fibrils for use in the assay.
The ThT solution (6 μM) in Tris-HCl buffer (30 nM, pH=7.4, 40 μL) was added to each of three cells in a 96 cell plate for fluorescence detection containing α-synuclein fibrils suspension (3.0 μM) in the Tris-HCl buffer (30 nM, pH=7.4, 40 μL). The mixture was incubated at room temperature for 1 hour on the shaking plate. The reaction plate was scanned by the excitation wavelength range from 430 to 465 nm. The maximum excitation wavelength (λex) was determined according to the fluorescent intensity-excitation wavelength curve.

[12] = target: Banner seeded fibrils (Homo sapiens (Human), UniProt P37840); test: Saturation binding of [125I]TZ61-84 to Banner seeded fibrils
Procedure: The binding efficacy (Kd) of TZ-61-84 was determined using a modified protocol. Specifically, saturation plots of radiolabeled [^125I]TZ61-84 were obtained measuring total and nonspecific binding of TZ61-84 to 100 nM Banner seeded fibrils. The results are depicted in FIG. 15B-15D and that TZ61-84 has a high binding affinity to α-synuclein (Kd<1 nM).

[13] = test system: Banner PD tissue; test: Specific binding of TZ61-84: displacement of [18F]TZ-61-84 from tissue; details: [18F]TZ-61-84 at 0.0195 nM
Procedure: (§6) TZ61-84 was screened for binding to Banner PD tissue, AD tissue, α-synuclein fibrils, Aβ fibrils and in controls by measuring how well it displaced [^18F]TZ-61-84 (at 0.0195 nM) from each substrate.

[14] = target: T2, α-synuclein fibrils; test: Specific binding of TZ61-84: displacement of [18F]TZ-61-84 from fibrils; details: [18F]TZ-61-84 at 0.0195 nM
Procedure: as §6

COc1ccc2nc(-c3noc(-c4ccc(-n5cccn5)cc4)n3)ccc2c1 [TZ46-148]
Ki [1]: 82 nM | Ki [2]: 17 nM | Ki [3]: 13 nM | Ki [4]: 7 nM

COc1ccc(-c2ccc3cc(-c4cnc5ccccc5c4)ccc3n2)cn1 [TZ55-101]
EC50 [5]: 15 nM | Ki [5]: 14 nM | EC50 [6]: 21 nM and 11 nM | Ki ([6]; Cheng-Prusoff from EC50): 20 nM and 10 nM | affinity for AD fibrils [7]: did not show significant affinity

COc1cc(-c2nc(-c3ccc4cc(OCCF)ccc4n3)no2)ccn1 [Compound 28, 3-(6-(2-Fluoroethoxy)quinolin-2-yl)-5-(2-methoxypyridin-4-yl)-1,2,4-oxadiazole]
Bmax [8]: 1082 pmol/mg | Kd [8]: 25 nM | Kd [9]: 18 nM | selectivity for α-synuclein fibrils over AD tissues [10]: lacks selectivity | Ki [11]: 17 nM

COc1ccc(Nc2ccc3cc(OC/C=C/I)ccc3n2)cn1 [TZ61-84]
Kd ([12]; 100 nM Banner seeded fibrils, saturation binding): 0.34 nM and 0.5 nM | Kd ([12]; 100 nM fibrils, saturation plot, unit inferred): 0.338 nM and 0.496 nM | Bmax ([12]; 100 nM fibrils, saturation plot, unit not given, listed as [^125I]TZ61-84): 259.7 and 310.5 | EC50 [5]: 17 nM | Ki [5]: 16 nM | affinity for PD Banner tissue compared to AD Banner tissue [13]: high affinity | affinity for α-synuclein fibrils over Aβ fibrils [14]: slightly more affinity
